Test results: US8937072B2, “Substituted cyanoaniline compounds, preparation and use thereof” (Sinochem Corporation, priority 2011, dated 2015)

Assays:
[1] = system: cucumber gray mold; experiment: Activity in vitro (96-well, High Through Put): inhibition rate against cucumber gray mold; type: cell-based
Description: The method is as followed: High Through Put is used in the test. The compound is dissolved in a proper solvent to become a testing solution whose concentration is designed. The solvent is selected from acetone, methanol, DMF and so on according to their dissolving capability to the sample. In a no animalcule condition, the testing solution and pathogens suspension are added into the cells of 96 cells culture board, which then should be placed in the constant temperature box. 24 hours later, pathogen germination or growth can be investigated by eyeballing, and the activity in vitro of the compound is evaluated based on germination or growth of control treatment.

[2] = system: cucumber downy mildew; experiment: Protectant activity in vivo (whole plant) against cucumber downy mildew
Description: (§1) The method is as followed: The whole plant is used in this test. The compound is dissolved in a proper solvent to get mother solution. The proper solvent is selected from acetone, methanol, DMF and so on according to their dissolving capability to the sample. The volume rate of solvent and testing solution (v/v) is equal to or less than 5%. The mother solution is diluted with water containing 0.1% tween-80 to get the testing solution whose concentration is designed. The testing solution is sprayed to the host plant by a special plant sprayer. The plant is inoculated with fungus after 24 hours. According to the infecting characteristic of fungus, the plant is stored in a humidity chamber and then transferred into greenhouse after infection is finished. And the other plants are placed in greenhouse directly. The activity of compound is obtained by eyeballing after 7 days in common.

[3] = system: corn rust; experiment: Protectant activity in vivo (whole plant) against corn rust; settings: for protectant activity against corn rust in vivo: dose 400 mg/L
Description: as §1

[4] = system: rice blast; experiment: microbe, parasite or virus in culture; type: cell-based

N#Cc1c(Cl)c(Cl)c(Nc2ccc([N+](=O)[O-])cc2Cl)c(Cl)c1C#N [Compound A-15]
the inhibition rate against cucumber gray mold (%) ([1]; 0.3 mg/L): 100% | the inhibition rate against cucumber gray mold (%) ([1]; 0.9 mg/L): 100% | the inhibition rate against cucumber gray mold (%) ([1]; 2.8 mg/L): 100% | the inhibition rate against cucumber gray mold (%) ([1]; 8.3 mg/L): 100% | protectant activity against cucumber downy mildew in vivo ([2]; dose 50 mg/L): 100% | protectant activity against cucumber downy mildew in vivo ([2]; dose 100 mg/L): 100% | protectant activity against cucumber downy mildew in vivo ([2]; dose 400 mg/L): 100% | protectant activity against corn rust in vivo [3]: 100%

N#Cc1c(Cl)c(Cl)c(Nc2cc(C(F)(F)F)ccc2Cl)c(Cl)c1C#N [Compound A-19]
protectant activity against cucumber downy mildew in vivo ([2]; dose 400 mg/L): 100% | protectant activity against corn rust in vivo [3]: 80%

N#Cc1c(Cl)c(Cl)c(Nc2ccc(Cl)cc2[N+](=O)[O-])c(Cl)c1C#N [Compound A-23]
protectant activity against cucumber downy mildew in vivo ([2]; dose 400 mg/L): 100% | protectant activity against corn rust in vivo [3]: 80%

N#Cc1cc(C#N)c(Cl)c(Nc2c(Cl)c(Cl)c(C#N)c(C#N)c2Cl)c1 [Compound A-59]
protectant activity against cucumber downy mildew in vivo ([2]; dose 400 mg/L): 100% | protectant activity against corn rust in vivo [3]: 100%

N#Cc1c(Cl)c(Cl)c(Nc2cc(Cl)cnc2Cl)c(Cl)c1C#N [Compound A-85]
protectant activity against cucumber downy mildew in vivo ([2]; dose 400 mg/L): 100% | protectant activity against corn rust in vivo [3]: 80%

N#Cc1c(Cl)c(Cl)c(Nc2ccc(F)cc2F)c(C#N)c1Cl [Compound B-14]
protectant activity against cucumber downy mildew in vivo ([2]; dose 400 mg/L): 100% | protectant activity against corn rust in vivo [3]: 100%

N#Cc1c(Cl)c(Cl)c(Nc2cc(C(F)(F)F)ccc2F)c(C#N)c1Cl [Compound B-30]
the inhibition rate against rice blast (%) 0.03 mg/L ([4]; Table 21, 0.03 mg/L): 0% | the inhibition rate against rice blast (%) 0.1 mg/L ([4]; Table 21, 0.1 mg/L): 50% | the inhibition rate against rice blast (%) 0.3 mg/L ([4]; Table 21, 0.3 mg/L): 100%

N#Cc1cc([N+](=O)[O-])ccc1Nc1c(Cl)c(Cl)c(C#N)c(Cl)c1C#N [Compound B-38]
protectant activity against cucumber downy mildew in vivo ([2]; dose 400 mg/L): 100% | protectant activity against corn rust in vivo [3]: 100%

N#Cc1c(Cl)c(Cl)c(Nc2c(Br)cc([N+](=O)[O-])cc2Br)c(C#N)c1Cl [Compound B-57]
the inhibition rate against cucumber gray mold (%) ([1]; 0.9 mg/L): 80% | the inhibition rate against cucumber gray mold (%) ([1]; 2.8 mg/L): 100% | the inhibition rate against cucumber gray mold (%) ([1]; 8.3 mg/L): 100% | the protectant activity (%) against cucumber downy mildew ([2]; 12.5 mg/L): 30% | the protectant activity (%) against cucumber downy mildew ([2]; 25 mg/L): 100% | the protectant activity (%) against cucumber downy mildew ([2]; 50 mg/L): 100% | the protectant activity (%) against cucumber downy mildew ([2]; 100 mg/L): 100% | protectant activity against cucumber downy mildew in vivo ([2]; dose 25 mg/L): 100% | protectant activity against cucumber downy mildew in vivo ([2]; dose 50 mg/L): 100% | protectant activity against cucumber downy mildew in vivo ([2]; dose 100 mg/L): 100% | protectant activity against cucumber downy mildew in vivo ([2]; dose 400 mg/L): 100% | the protectant activity (%) against corn rust ([3]; 6.25 mg/L): 60% | the protectant activity (%) against corn rust ([3]; 25 mg/L): 80% | the protectant activity (%) against corn rust ([3]; 100 mg/L): 85% | the protectant activity (%) against corn rust ([3]; 400 mg/L): 100% | protectant activity against corn rust in vivo [3]: 100%

Cc1c(Cl)c([N+](=O)[O-])cc([N+](=O)[O-])c1Nc1c(Cl)c(Cl)c(C#N)c(Cl)c1C#N [Compound B-68]
inhibition rate against cucumber gray mold ([1]; in vitro, dose 0.9 mg/L): 80% | protectant activity against cucumber downy mildew in vivo ([2]; dose 100 mg/L): 100% | protectant activity against cucumber downy mildew in vivo ([2]; dose 400 mg/L): 100%

N#Cc1c(F)c(F)c(Nc2c(Cl)cc(C(F)(F)F)cc2Cl)c(C#N)c1F [Compound B-111]
protectant activity against cucumber downy mildew in vivo ([2]; dose 50 mg/L): 98% | protectant activity against cucumber downy mildew in vivo ([2]; dose 100 mg/L): 100% | protectant activity against cucumber downy mildew in vivo ([2]; dose 400 mg/L): 100% | protectant activity against corn rust in vivo [3]: 100%

COc1ccc(Nc2c(Cl)c(C#N)c(Cl)c(Cl)c2C#N)cc1 [Compound C-14]
inhibition rate against rice blast ([4]; in vitro, dose 8.3 mg/L): 80%
